In patent US10670605B2, “Cysteine reactive probes and uses thereof” (The Scripps Research Institute, priority 2015, dated 2020):

Legend:
Experiment in all cases: Competitive isoTOP-ABPP in situ (fragment-treated cells)
Format in all cases: cell-based
[1] = target: T1, cysteines in MDA-MB-231 and Ramos cells (Homo sapiens, UniProt Q9BQ69)
T1 sequence (Q9BQ69 1-325): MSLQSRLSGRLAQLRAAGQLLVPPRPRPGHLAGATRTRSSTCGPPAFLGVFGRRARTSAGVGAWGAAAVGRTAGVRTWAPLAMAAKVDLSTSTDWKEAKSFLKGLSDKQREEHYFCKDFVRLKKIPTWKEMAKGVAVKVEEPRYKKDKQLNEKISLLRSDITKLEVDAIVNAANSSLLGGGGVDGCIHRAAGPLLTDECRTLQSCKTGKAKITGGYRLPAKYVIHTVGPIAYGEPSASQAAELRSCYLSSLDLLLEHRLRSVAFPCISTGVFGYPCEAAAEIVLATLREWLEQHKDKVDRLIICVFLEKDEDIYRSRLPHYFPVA
Experimental: (§1) Fragments 4 and 11 were screened at 100 μM in situ. […] Site-specific engagement of electrophilic fragments was assessed by blockade of IA-alkyne probe labeling. […] Ratios for unique peptide entries were calculated for each experiment; overlapping peptides with the same modified cysteine (e.g. different charge states, MudPIT chromatographic steps or tryptic termini) were grouped together and the median ratio was reported as the final ratio (R). The peptide ratios reported by CIMAGE were further filtered to ensure the removal or correction of low quality ratios in each individual dataset. […] R values were calculated and individual datasets were filtered as described above (R value calculation and processing).

[2] = target: T2, cysteines in MDA-MB-231 and Ramos cells (Homo sapiens, UniProt Q09161)
T2 sequence (Q09161 1-790): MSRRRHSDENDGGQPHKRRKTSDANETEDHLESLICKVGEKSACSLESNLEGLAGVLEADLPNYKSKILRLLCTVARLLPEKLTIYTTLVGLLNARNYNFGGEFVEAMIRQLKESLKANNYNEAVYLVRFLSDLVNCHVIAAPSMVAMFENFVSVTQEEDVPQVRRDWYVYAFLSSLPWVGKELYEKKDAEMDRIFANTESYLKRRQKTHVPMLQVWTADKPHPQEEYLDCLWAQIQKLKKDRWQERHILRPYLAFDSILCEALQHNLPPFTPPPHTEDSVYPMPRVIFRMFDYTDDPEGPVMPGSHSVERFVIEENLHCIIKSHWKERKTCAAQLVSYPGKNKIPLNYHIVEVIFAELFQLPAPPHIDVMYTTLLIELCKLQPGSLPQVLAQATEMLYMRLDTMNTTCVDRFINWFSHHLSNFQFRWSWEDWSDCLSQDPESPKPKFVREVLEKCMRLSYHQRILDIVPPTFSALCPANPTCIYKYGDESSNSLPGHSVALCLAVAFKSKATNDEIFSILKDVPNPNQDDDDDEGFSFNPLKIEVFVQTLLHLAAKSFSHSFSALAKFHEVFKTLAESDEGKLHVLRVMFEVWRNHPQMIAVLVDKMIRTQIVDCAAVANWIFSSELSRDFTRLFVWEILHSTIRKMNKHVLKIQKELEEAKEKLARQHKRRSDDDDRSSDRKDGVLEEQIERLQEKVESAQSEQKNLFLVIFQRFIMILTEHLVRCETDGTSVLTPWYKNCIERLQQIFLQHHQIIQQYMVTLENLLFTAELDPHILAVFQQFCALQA
Experimental: as §1

[3] = target: T3, cysteines in MDA-MB-231 and Ramos cells (Homo sapiens, UniProt Q9UMS0)
T3 sequence (Q9UMS0 10-254): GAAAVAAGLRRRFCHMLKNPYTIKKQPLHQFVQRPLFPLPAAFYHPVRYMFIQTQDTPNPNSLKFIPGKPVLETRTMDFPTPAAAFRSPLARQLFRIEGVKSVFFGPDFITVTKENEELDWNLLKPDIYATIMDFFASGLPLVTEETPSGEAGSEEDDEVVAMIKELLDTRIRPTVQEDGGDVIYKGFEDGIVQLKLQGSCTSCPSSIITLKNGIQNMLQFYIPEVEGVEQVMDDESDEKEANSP
Experimental: as §1

[4] = target: cysteines in MDA-MB-231 and Ramos cells (Homo sapiens, UniProt Q9NUY8)
Chain of cysteines in MDA-MB-231 and Ramos cells (Homo sapiens, UniProt Q9NUY8) (Q9NUY8 whole entry): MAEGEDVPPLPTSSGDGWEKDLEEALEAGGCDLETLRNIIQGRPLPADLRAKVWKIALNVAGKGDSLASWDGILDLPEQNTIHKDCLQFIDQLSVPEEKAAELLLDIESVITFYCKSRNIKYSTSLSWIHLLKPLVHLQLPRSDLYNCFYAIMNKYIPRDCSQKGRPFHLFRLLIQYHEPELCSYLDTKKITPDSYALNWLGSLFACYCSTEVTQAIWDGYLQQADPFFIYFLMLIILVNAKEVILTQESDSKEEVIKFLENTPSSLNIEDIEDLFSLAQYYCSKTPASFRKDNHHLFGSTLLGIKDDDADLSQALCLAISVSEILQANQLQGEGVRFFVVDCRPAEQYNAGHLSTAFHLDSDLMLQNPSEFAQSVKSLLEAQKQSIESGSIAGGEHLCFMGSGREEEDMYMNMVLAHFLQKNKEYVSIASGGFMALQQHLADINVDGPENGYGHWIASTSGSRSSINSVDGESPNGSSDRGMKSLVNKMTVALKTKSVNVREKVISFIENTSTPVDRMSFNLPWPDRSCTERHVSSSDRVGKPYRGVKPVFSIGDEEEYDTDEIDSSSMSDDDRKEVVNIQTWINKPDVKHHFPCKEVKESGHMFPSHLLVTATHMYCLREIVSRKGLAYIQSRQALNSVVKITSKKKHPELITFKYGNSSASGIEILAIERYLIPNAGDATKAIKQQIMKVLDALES
Experimental: as §1

[5] = target: T4, cysteines in MDA-MB-231 and Ramos cells (Homo sapiens, UniProt P21980)
T4 sequence (P21980 1-687): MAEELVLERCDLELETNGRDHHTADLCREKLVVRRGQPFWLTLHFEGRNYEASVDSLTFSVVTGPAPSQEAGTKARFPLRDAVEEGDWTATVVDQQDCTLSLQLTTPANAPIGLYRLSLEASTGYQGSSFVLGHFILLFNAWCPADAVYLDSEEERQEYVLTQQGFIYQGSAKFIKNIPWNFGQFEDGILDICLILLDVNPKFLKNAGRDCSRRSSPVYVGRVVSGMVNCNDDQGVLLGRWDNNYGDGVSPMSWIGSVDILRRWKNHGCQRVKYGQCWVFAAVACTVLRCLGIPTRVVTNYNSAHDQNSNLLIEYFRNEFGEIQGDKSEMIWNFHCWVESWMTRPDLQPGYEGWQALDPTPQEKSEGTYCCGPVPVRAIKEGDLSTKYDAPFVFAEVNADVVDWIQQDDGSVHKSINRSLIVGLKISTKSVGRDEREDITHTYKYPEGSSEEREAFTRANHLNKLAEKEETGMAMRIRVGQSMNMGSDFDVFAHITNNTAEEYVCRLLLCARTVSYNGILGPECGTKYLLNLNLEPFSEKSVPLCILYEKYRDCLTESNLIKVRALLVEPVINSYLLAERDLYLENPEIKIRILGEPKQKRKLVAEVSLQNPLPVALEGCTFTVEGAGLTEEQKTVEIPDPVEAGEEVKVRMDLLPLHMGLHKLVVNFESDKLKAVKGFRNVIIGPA
Experimental: as §1

[6] = target: cysteines in MDA-MB-231 and Ramos cells (Homo sapiens, UniProt Q9ULV4)
Chain of cysteines in MDA-MB-231 and Ramos cells (Homo sapiens, UniProt Q9ULV4) (Q9ULV4 whole entry): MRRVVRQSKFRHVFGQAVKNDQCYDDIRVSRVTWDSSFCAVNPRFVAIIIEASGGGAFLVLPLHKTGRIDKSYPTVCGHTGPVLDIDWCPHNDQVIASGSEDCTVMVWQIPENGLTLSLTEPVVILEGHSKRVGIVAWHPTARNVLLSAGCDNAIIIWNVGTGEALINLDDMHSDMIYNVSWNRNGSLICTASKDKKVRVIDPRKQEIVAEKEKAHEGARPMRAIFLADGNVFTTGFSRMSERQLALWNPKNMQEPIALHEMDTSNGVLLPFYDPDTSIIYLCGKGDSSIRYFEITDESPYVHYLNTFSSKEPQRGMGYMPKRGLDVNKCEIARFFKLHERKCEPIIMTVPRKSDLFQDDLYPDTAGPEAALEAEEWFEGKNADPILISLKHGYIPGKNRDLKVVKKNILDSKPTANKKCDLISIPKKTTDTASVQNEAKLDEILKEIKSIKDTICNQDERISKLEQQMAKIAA
Experimental: as §1

[7] = target: T5, cysteines in MDA-MB-231 and Ramos cells (Homo sapiens, UniProt Q9Y3A3)
T5 sequence (Q9Y3A3 1-225): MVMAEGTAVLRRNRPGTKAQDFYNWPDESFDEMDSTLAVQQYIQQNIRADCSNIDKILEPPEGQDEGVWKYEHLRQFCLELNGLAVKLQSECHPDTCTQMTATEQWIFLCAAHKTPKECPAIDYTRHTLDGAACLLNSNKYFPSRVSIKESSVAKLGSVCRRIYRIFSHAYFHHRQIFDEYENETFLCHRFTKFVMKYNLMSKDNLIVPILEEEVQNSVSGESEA
Experimental: as §1

[8] = target: T6, cysteines in MDA-MB-231 and Ramos cells (Homo sapiens, UniProt P04183)
T6 sequence (P04183 1-234): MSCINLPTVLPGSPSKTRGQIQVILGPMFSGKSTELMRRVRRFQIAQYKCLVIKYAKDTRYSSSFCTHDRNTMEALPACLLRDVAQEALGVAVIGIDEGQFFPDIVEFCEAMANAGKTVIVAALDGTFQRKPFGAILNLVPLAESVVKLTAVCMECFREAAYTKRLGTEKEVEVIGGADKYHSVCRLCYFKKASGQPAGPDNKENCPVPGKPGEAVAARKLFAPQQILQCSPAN
Experimental: as §1

SMILES	isoTOP-ABPP ratio Q9BQ69_C186 ([1]; 200 μM, insitu, 231)	isoTOP-ABPP ratio Q09161_C44 ([2]; 200 μM, insitu, 231)	isoTOP-ABPP ratio Q9UMS0_C213 ([3]; 200 μM, insitu, 231)	isoTOP-ABPP ratio Q9NUY8_C283 ([4]; 200 μM, insitu, 231)	isoTOP-ABPP ratio P21980_C277 ([5]; 200 μM, insitu, 231)	isoTOP-ABPP ratio Q9ULV4_C420 ([6]; 200 μM, insitu, 231)	isoTOP-ABPP ratio P04183_C230 ([8]; 200 μM, insitu, 231)	isoTOP-ABPP ratio Q9Y3A3_C134 ([7]; 200 μM, insitu, 231)	also measured
CC(C)CCOCCNC(=O)CCl [compound 27]	2.4	0.8	1.3	0.6	0.6	0.8			
COc1cc2c(cc1OC)CN(C(=O)CCl)CC2 [compound 8]									isoTOP-ABPP reactivity Q9BQ69_C186 MACROD1 ([1]; 200 μM, insitu, 231): 5.0; isoTOP-ABPP reactivity Q09161_C44 NCBP1 ([2]; 200 μM, insitu, 231): 2.0; isoTOP-ABPP reactivity Q9Y3A3_C134 MOB4 ([7]; 200 μM, insitu, 231): 1.6; isoTOP-ABPP reactivity Q9NUY8_C283 TBC1D23 ([4]; 200 μM, insitu, 231): 4.9; isoTOP-ABPP reactivity P21980_C277 TGM2 ([5]; 200 μM, insitu, 231): 0.7; isoTOP-ABPP reactivity Q9ULV4_C420 CORO1C ([6]; 200 μM, insitu, 231): 4.6; isoTOP-ABPP reactivity P04183_C66 TK1 ([8]; 200 μM, insitu, 231): 2.3
COc1ccc(C2CC(c3cccs3)=NN2C(=O)CCl)cc1 (stereo not shown) [compound 4]									isoTOP-ABPP reactivity Q9BQ69_C186 MACROD1 ([1]; 100 μM in situ 231): 1.8; isoTOP-ABPP reactivity Q09161_C44 NCBP1 ([2]; 100 μM in situ 231): 1.8; isoTOP-ABPP reactivity Q9UMS0_C213 NFU1 ([3]; 100 μM in situ 231): 4.4; isoTOP-ABPP reactivity Q9Y3A3_C134 MOB4 ([7]; 100 μM in situ 231): 1.2; isoTOP-ABPP reactivity Q9NUY8_C283 TBC1D23 ([4]; 100 μM in situ 231): 2.1; isoTOP-ABPP reactivity P21980_C277 TGM2 ([5]; 100 μM in situ 231): 0.5; isoTOP-ABPP reactivity Q9ULV4_C420 CORO1C ([6]; 100 μM in situ 231): 1.3; isoTOP-ABPP reactivity P04183_C230 TK1 ([8]; 100 μM in situ 231): 0.8
O=C(CCl)Nc1cccc2ncccc12 [compound 51]	1.2	1.2	1.8	2.1	1.0	1.1	0.7		
COc1ccccc1OCCNC(=O)CCl [compound 28]				0.7	0.4	0.7			
O=C(CCl)N1CCN(S(=O)(=O)c2ccccc2F)CC1 [compound 10]	2.4	12.4	20.0	2.0	0.6	3.4	1.3	1.9	
CC1CCc2ccccc2N1C(=O)CCl (stereo not shown) [compound 45]	3.3	2.5	7.1	2.7	1.1	3.2	2.0	2.3	
Cc1ccc(C=C(C#N)C(=O)NCCN2CCOCC2)cc1 [compound 41]	1.2	0.8	0.9	0.7	0.6	0.8	0.6	0.9	isoTOP-ABPP ratio P04183_C66 ([8]; 200 μM, insitu, 231): 0.4
COc1ccc2c(c1)CCCN2C(=O)CCl [compound 2]									isoTOP-ABPP reactivity Q9BQ69_C186 MACROD1 ([1]; 200 μM, insitu, 231): 4.8; isoTOP-ABPP reactivity Q09161_C44 NCBP1 ([2]; 200 μM, insitu, 231): 2.1; isoTOP-ABPP reactivity Q9UMS0_C213 NFU1 ([3]; 200 μM, insitu, 231): 7.4; isoTOP-ABPP reactivity Q9NUY8_C283 TBC1D23 ([4]; 200 μM, insitu, 231): 4.1; isoTOP-ABPP reactivity P21980_C277 TGM2 ([5]; 200 μM, insitu, 231): 0.7; isoTOP-ABPP reactivity Q9ULV4_C420 CORO1C ([6]; 200 μM, insitu, 231): 3.0; isoTOP-ABPP reactivity P04183_C230 TK1 ([8]; 200 μM, insitu, 231): 1.9
C=CC(=O)Nc1cc(F)c(N2CCN(C(=O)OC(C)(C)C)CC2)c(F)c1 [compound 38]	3.6	1.2	3.5	1.0	1.4	1.4	2.8	1.0	
O=C(CCl)NC(=O)NC12CC3CC(CC(C3)C1)C2 [compound 12]	2.7	4.7	20.0	2.9	0.3	2.2		1.4	
C=CC(=O)N(Cc1cccnc1)c1cc(C(F)(F)F)cc(C(F)(F)F)c1 [compound 31]	0.5	0.6	1.5	0.6		0.8		1.0	isoTOP-ABPP ratio Q9Y3A3_C134 ([7]; 200 μM, insitu, ramos): 1.8; isoTOP-ABPP ratio Q9ULV4_C420 ([6]; 200 μM, insitu, ramos): 1.1; isoTOP-ABPP ratio P04183_C66 ([8]; 200 μM, insitu, 231): 0.7; isoTOP-ABPP ratio P04183_C230 ([8]; 200 μM, insitu, ramos): 2.1
Cn1cc(S(=O)(=O)N2CCOCC2)cc1C(=O)NC(=O)CCl [compound 11]									isoTOP-ABPP ratio Q9BQ69_C186 ([1]; 100 μM in situ 231): 1.0; isoTOP-ABPP ratio Q09161_C44 ([2]; 100 μM in situ 231): 1.1; isoTOP-ABPP ratio Q9Y3A3_C134 ([7]; 100 μM in situ 231): 1.8; isoTOP-ABPP ratio Q9NUY8_C283 ([4]; 100 μM in situ 231): 1.1; isoTOP-ABPP ratio P21980_C277 ([5]; 100 μM in situ 231): 0.6; isoTOP-ABPP ratio Q9ULV4_C420 ([6]; 100 μM in situ 231): 0.9; isoTOP-ABPP ratio, cysteine P04183_C66 ([8]; 100 μM in situ 231): 0.6
O=C(CCl)N1CCN(CC(=O)N2CCOCC2)CC1 [compound 29]									isoTOP-ABPP ratio Q9BQ69_C186 ([1]; 200 μM, insitu, ramos): 1.5; isoTOP-ABPP ratio Q09161_C44 ([2]; 200 μM, insitu, ramos): 1.1; isoTOP-ABPP ratio Q9UMS0_C213 ([3]; 200 μM, insitu, ramos): 2.0; isoTOP-ABPP ratio Q9Y3A3_C134 ([7]; 200 μM, insitu, ramos): 1.2; isoTOP-ABPP ratio Q9NUY8_C283 ([4]; 200 μM, insitu, ramos): 1.3; isoTOP-ABPP ratio P04183_C66 ([8]; 200 μM, insitu, ramos): 1.6; isoTOP-ABPP ratio P04183_C230 ([8]; 200 μM, insitu, ramos): 1.2
O=C(CCl)NC12CC3CC(CC(C3)C1)C2 [compound 21]	1.4	1.3		0.8	0.7	1.3	0.7		
O=C(CCl)N1CCC(Cc2ccccc2)CC1 [compound 9]									isoTOP-ABPP reactivity Q9BQ69_C186 MACROD1 ([1]; 200 μM, insitu, 231): 1.2; isoTOP-ABPP reactivity Q9Y3A3_C134 MOB4 ([7]; 200 μM, insitu, 231): 20.0; isoTOP-ABPP reactivity Q9NUY8_C283 TBC1D23 ([4]; 200 μM, insitu, 231): 2.1; isoTOP-ABPP reactivity P21980_C277 TGM2 ([5]; 200 μM, insitu, 231): 2.3; isoTOP-ABPP reactivity Q9ULV4_C420 CORO1C ([6]; 200 μM, insitu, 231): 2.0; isoTOP-ABPP reactivity P04183_C66 TK1 ([8]; 200 μM, insitu, 231): 7.0; isoTOP-ABPP reactivity P04183_C230 TK1 ([8]; 200 μM, insitu, 231): 10.0
